Measurements from patent US20120220562A1, “Anti-Viral Compounds” (ABBOTT LABAORATORIES, priority 2011, published 2012).

The molecules below were run on HCV 1b-Con1 replicon (assay: HCV 1b-Con1 replicon assay in the presence of 5% FBS). Details: Hepatitis C virus.
Assay type: cell-based

Row | SMILES | EC50
1 | COC(=O)N[C@H](C(=O)N1CCC[C@H]1c1nc2cc([C@H]3CC[C@H](c4ccc5nc([C@@H]6CCCN6C(=O)[C@@H](NC(=O)OC)C(C)C)[nH]c5c4)N3c3ccc(F)c(F)c3)ccc2[nH]1)C(C)C [Example 4.9, methyl {(2S)-1-[(2S)-2-{5-[(2R,5R)-1-(3,4-difluorophenyl)-5-{2-[(2S)-1-{(2S)-2-[(methoxycarbonyl)amino]-3-methylbutanoyl}pyrrolidin-2-yl]-1H-benzimidazol-6-yl}pyrrolidin-2-yl]-1H-benzimidazol-2-yl}pyrrolidin-1-yl]-3-methyl-1-oxobutan-2-yl}carbamate] | < 0.1 nM
2 | COC(=O)N[C@H](C(=O)N1CCC[C@H]1c1nc2cc([C@H]3CC[C@H](c4ccc5[nH]c([C@@H]6CCCN6C(=O)[C@@H](NC(=O)OC)C6Cc7ccccc7C6)nc5c4)N3c3cc(F)c(N4CCC(c5ccccc5)CC4)c(F)c3)ccc2[nH]1)C1Cc2ccccc2C1 [Example 3.27, dimethyl ({(2R,5R)-1-[3,5-difluoro-4-(4-phenylpiperidin-1-yl)phenyl]pyrrolidine-2,5-diyl}bis{1H-benzimidazole-5,2-diyl(2S)pyrrolidine-2,1-diyl[(1S)-1-(2,3-dihydro-1H-inden-2-yl)-2-oxoethane-2,1-diyl]})biscarbamate] | < 0.1 nM
3 | COC(=O)N[C@H](C(=O)N1CCC[C@H]1c1nc2cc([C@H]3CC[C@@H](c4cc5nc([C@@H]6CCCN6C(=O)[C@@H](NC(=O)OC)C(C)C)[nH]c5cc4F)N3c3cc(F)c(N4CCCCC4)c(F)c3)c(F)cc2[nH]1)C(C)C [Example 4.52, methyl {(2S)-1-[(2S)-2-{5-[(2S,5R)-1-[3,5-difluoro-4-(piperidin-1-yl)phenyl]-5-{6-fluoro-2-[(2S)-1-{(2S)-2-[(methoxycarbonyl)amino]-3-methylbutanoyl}pyrrolidin-2-yl]-1H-benzimidazol-5-yl}pyrrolidin-2-yl]-6-fluoro-1H-benzimidazol-2-yl}pyrrolidin-1-yl]-3-methyl-1-oxobutan-2-yl}carbamate] | < 0.1 nM
4 | COC(=O)N[C@H](C(=O)N1CCC[C@H]1c1nc2cc([C@H]3CC[C@H](c4ccc5[nH]c([C@@H]6CCCN6C(=O)[C@@H](NC(=O)OC)C(C)C)nc5c4)N3c3cc(F)c(N4CCC(c5cc(F)cc(F)c5)CC4)c(F)c3)ccc2[nH]1)C(C)C [Example 3.45, methyl {(2S)-1-[(2S)-2-{5-[(2R,5R)-1-{4-[4-(3,5-difluorophenyl)piperidin-1-yl]-3,5-difluorophenyl}-5-{2-[(2S)-1-{(2S)-2-[(methoxycarbonyl)amino]-3-methylbutanoyl}pyrrolidin-2-yl]-1H-benzimidazol-5-yl}pyrrolidin-2-yl]-1H-benzimidazol-2-yl}pyrrolidin-1-yl]-3-methyl-1-oxobutan-2-yl}carbamate] | < 0.1 nM
5 | COC(=O)N[C@H](C(=O)N1CCC[C@H]1c1nc2cc([C@H]3CC[C@H](c4ccc5[nH]c([C@@H]6CCCN6C(=O)[C@@H](NC(=O)OC)C(C)C)nc5c4)N3c3cc(F)c(N4CCC(C)(C)CC4)c(F)c3)ccc2[nH]1)C(C)C [Example 5.10, methyl {(2S)-1-[(2S)-2-{5-[(2R,5R)-1-[4-(4,4-dimethylpiperidin-1-yl)-3,5-difluorophenyl]-5-{2-[(2S)-1-{(2S)-2-[(methoxycarbonyl)amino]-3-methylbutanoyl}pyrrolidin-2-yl]-1H-benzimidazol-5-yl}pyrrolidin-2-yl]-1H-benzimidazol-2-yl}pyrrolidin-1-yl]-3-methyl-1-oxobutan-2-yl}carbamate] | < 0.1 nM
6 | COC(=O)N[C@H](C(=O)N1CCC[C@H]1c1nc2cc([C@H]3CC[C@H](c4ccc5[nH]c([C@@H]6CCCN6C(=O)[C@@H](NC(=O)OC)C6CCOCC6)nc5c4)N3c3cc(F)c(N4CCC(c5ccccc5)CC4)c(F)c3)ccc2[nH]1)C(C)C [Example 11.1, methyl [(1S)-2-[(2S)-2-{5-[(2R,5R)-1-[3,5-difluoro-4-(4-phenylpiperidin-1-yl)phenyl]-5-{2-[(2S)-1-{(2S)-2-[(methoxycarbonyl)amino]-3-methylbutanoyl}pyrrolidin-2-yl]-1H-benzimidazol-5-yl}pyrrolidin-2-yl]-1H-benzimidazol-2-yl}pyrrolidin-1-yl]-2-oxo-1-(tetrahydro-2H-pyran-4-yl)ethyl]carbamate] | < 0.1 nM
7 | COC(=O)N[C@H](C(=O)N1CCC[C@H]1c1nc2ccc([C@H]3CC[C@H](c4ccc5nc([C@@H]6CCCN6C(=O)[C@@H](NC(=O)OC)C(C)C)[nH]c5c4)N3c3ccc(S(F)(F)(F)(F)F)cc3)cc2[nH]1)C(C)C [Example 4.13, methyl {(2S)-1-[(2S)-2-(6-{(2R,5R)-5-{2-[(2S)-1-{(2S)-2-[(methoxycarbonyl)amino]-3-methylbutanoyl}pyrrolidin-2-yl]-1H-benzimidazol-6-yl}-1-[4-(pentafluoro-lambda˜6˜-sulfanyl)phenyl]pyrrolidin-2-yl}-1H-benzimidazol-2-yl)pyrrolidin-1-yl]-3-methyl-1-oxobutan-2-yl}carbamate] | < 0.1 nM
8 | COC(=O)N[C@H](C(=O)N1CCC[C@H]1c1nc2cc([C@H]3CC[C@H](c4cc5nc([C@@H]6CCCN6C(=O)[C@@H](NC(=O)OC)C(C)C)[nH]c5cc4F)N3c3cc(F)c(N4CCC(c5ccc(F)cc5F)CC4)c(F)c3)c(F)cc2[nH]1)C(C)C [Example 4.56, methyl {(2S)-1-[(2S)-2-{5-[(2R,5R)-1-{4-[4-(2,4-difluorophenyl)piperidin-1-yl]-3,5-difluorophenyl}-5-{6-fluoro-2-[(2S)-1-{(2S)-2-[(methoxycarbonyl)amino]-3-methylbutanoyl}pyrrolidin-2-yl]-1H-benzimidazol-5-yl}pyrrolidin-2-yl]-6-fluoro-1H-benzimidazol-2-yl}pyrrolidin-1-yl]-3-methyl-1-oxobutan-2-yl}carbamate] | < 0.1 nM
9 | COC(=O)N[C@H](C(=O)N1[C@H](c2nc3cc([C@H]4CC[C@H](c5ccc6[nH]c([C@@H]7C[C@@H]8CCC[C@@H]8N7C(=O)[C@@H](NC(=O)OC)[C@@H](C)OC)nc6c5)N4c4cc(F)c(N5CCCCC5)c(F)c4)ccc3[nH]2)C[C@@H]2CCC[C@@H]21)[C@@H](C)OC [Example 3.33] | < 0.1 nM
10 | COC(=O)N[C@H](C(=O)N1CCC[C@H]1c1nc2cc([C@H]3CC[C@H](c4ccc5[nH]c([C@@H]6CCCN6C(=O)[C@@H](NC(=O)OC)C(C)C)nc5c4)N3c3ccc(OC4COCOC4)cc3)ccc2[nH]1)C(C)C [Example 2.3, methyl {(2S)-1-[(2S)-2-{5-[(2R,5R)-1-[4-(1,3-dioxan-5-yloxy)phenyl]-5-{2-[(2S)-1-{(2S)-2-[(methoxycarbonyl)amino]-3-methylbutanoyl}pyrrolidin-2-yl]-1H-benzimidazol-5-yl}pyrrolidin-2-yl]-1H-benzimidazol-2-yl}pyrrolidin-1-yl]-3-methyl-1-oxobutan-2-yl}carbamate] | 1 to 10 nM
11 | COC(=O)N[C@H](C(=O)N1CCC[C@H]1c1nc2ccc([C@H]3CC[C@H](c4ccc5nc([C@@H]6CCCN6C(=O)[C@@H](NC(=O)OC)C(C)C)[nH]c5c4)N3c3ccc(N(C(C)=O)C(C)(C)C)c(F)c3)cc2[nH]1)C(C)C [Example 2.8, methyl {(2S)-1-[(2S)-2-{6-[(2R,5R)-1-{4-[acetyl(tert-butyl)amino]-3-fluorophenyl}-5-{2-[(2S)-1-{(2S)-2-[(methoxycarbonyl)amino]-3-methylbutanoyl}pyrrolidin-2-yl]-1H-benzimidazol-6-yl}pyrrolidin-2-yl]-1H-benzimidazol-2-yl}pyrrolidin-1-yl]-3-methyl-1-oxobutan-2-yl}carbamate] | 0.1 to 1 nM
12 | COC(=O)N[C@H](C(=O)N1CCC[C@H]1c1nc2cc([C@H]3CC[C@H](c4cc5nc([C@@H]6CCCN6C(=O)[C@@H](NC(=O)OC)C6CCCC6)[nH]c5cc4F)N3c3cc(F)c(N4CCCCC4)c(F)c3)c(F)cc2[nH]1)C1CCCC1 [Example 3.39, dimethyl ({(2R,5R)-1-[3,5-difluoro-4-(piperidin-1-yl)phenyl]pyrrolidine-2,5-diyl}bis{(6-fluoro-1H-benzimidazole-5,2-diyl)(2S)pyrrolidine-2,1-diyl[(1S)-1-cyclopentyl-2-oxoethane-2,1-diyl]})biscarbamate] | < 0.1 nM
13 | COC(=O)N[C@H](C(=O)N1CCC[C@H]1c1nc2cc([C@H]3CC[C@H](c4cc5nc([C@@H]6CCCN6C(=O)[C@@H](NC(=O)OC)[C@@H](C)OC)[nH]c5cc4F)N3c3cc(F)c(N4CCC(C(C)(C)C)CC4)c(F)c3)c(F)cc2[nH]1)[C@@H](C)OC [Example 6.13, methyl {(2S,3R)-1-[(2S)-2-{5-[(2R,5R)-1-[4-(4-tert-butylpiperidin-1-yl)-3,5-difluorophenyl]-5-(6-fluoro-2-{(2S)-1-[N-(methoxycarbonyl)-O-methyl-L-threonyl]pyrrolidin-2-yl}-1H-benzimidazol-5-yl)pyrrolidin-2-yl]-6-fluoro-1H-benzimidazol-2-yl}pyrrolidin-1-yl]-3-methoxy-1-oxobutan-2-yl}carbamate] | < 0.1 nM
14 | COC(=O)N[C@H](C(=O)N1C[C@@H](F)C[C@H]1c1nc2cc([C@H]3CC[C@H](c4ccc5[nH]c([C@@H]6C[C@H](F)CN6C(=O)[C@@H](NC(=O)OC)C(C)C)nc5c4)N3c3ccc(F)cc3)ccc2[nH]1)C(C)C [Example 3.9, methyl {(2S)-1-[(2S,4S)-4-fluoro-2-{5-[(2R,5R)-5-{2-[(2S,4S)-4-fluoro-1-{(2S)-2-[(methoxycarbonyl)amino]-3-methylbutanoyl}pyrrolidin-2-yl]-1H-benzimidazol-5-yl}-1-(4-fluorophenyl)pyrrolidin-2-yl]-1H-benzimidazol-2-yl}pyrrolidin-1-yl]-3-methyl-1-oxobutan-2-yl}carbamate] | 0.1 to 1 nM
15 | COC(=O)N[C@H](C(=O)N1CCC[C@H]1c1nc2ccc([C@H]3CC[C@H](c4ccc5nc([C@@H]6CCCN6C(=O)[C@@H](NC(=O)OC)C(C)C)[nH]c5c4)N3c3ccc(S(C)(=O)=O)c(F)c3)cc2[nH]1)C(C)C [Example 2.7, methyl {(2S)-1-[(2S)-2-{6-[(2R,5R)-1-[3-fluoro-4-(methylsulfonyl)phenyl]-5-{2-[(2S)-1-{(2S)-2-[(methoxycarbonyl)amino]-3-methylbutanoyl}pyrrolidin-2-yl]-1H-benzimidazol-6-yl}pyrrolidin-2-yl]-1H-benzimidazol-2-yl}pyrrolidin-1-yl]-3-methyl-1-oxobutan-2-yl}carbamate] | 1 to 10 nM
